Measurements taken from US6683054B1, “Use of melagatran” (AstraZeneca AB, priority 1999, dated 2004).

Test system: paw oedema
Assay: Carrageenan-induced paw oedema in rats (foot volume by water plethysmograph)
Assay type: in vivo, rat
Conditions: for % Inhibition after sub-plantar injection, 2 hours after / % Inhibition after sub-plantar injection, 4 hours after: Table 1; for % Inhibition after sub-plantar injection, 2 hours after: 2 hours after carrageenan; for % Inhibition after sub-plantar injection, 4 hours after: 4 hours after carrageenan
From the text: Groups of five male Charles River CD rats in the weight range 180 to 240 g were used. On their arrival, rats were housed in controlled environment rooms and fed a standard diet for at least one week before use.
Rats were starved overnight before the test, although water was given ad libitum. A mark was made on the ankle joint of each rat, the day before the test, to indicate where the foot volume was to be measured.
Compounds were made up in the appropriate vehicle for dosing via either the subcutaneous (s.c.), intravenous (i.v.) or oral (p.o.) routes. Melagatran was dosed in water (20 μmol/kg) when given p.o., and in saline, and in cyclodextrin (40%), when given s.c. (0.7 to 2 μmol/kg). Drugs were administered in a dose volume of 5 mL/kg body weight for p.o. dosing or 1 to 2 mL/kg body weight for s.c. dosing. Control rats received the equivalent volume of vehicle.
A 1% solution of carrageenan in saline was prepared the day prior to the test. The carrageenan was suspended in saline and stirred vigorously on a magnetic stirrer for one hour. It was then stored at 4° C. until required. Thirty minutes after dosing, each rat was injected s.c. in the plantar region of the left hind foot with 0.1 mL of 1% carrageenan.
To reduce both discomfort to the rat and variability in the test, rats were housed on wood chip bedding in solid bottom cages. The rats had access to a solution of 5% glucose throughout the duration of the test.
The plethysmograph was calibrated using blocks of 2 mL and 4 mL mass before the first, and after the last, measurement at each time point.
Foot volumes were measured before dosing and up to 6 hours after the sub-plantar injection of carrageenan. The increase in foot volume for each rat was calculated using the difference between the individual foot volume at time zero, and at the various time points. The inhibition afforded by a treatment was expressed as a percentage inhibition of the mean absolute increase in foot volume in treated animals compared to control animals. Indomethacin at 10 mg/kg p.o. was always included as an internal standard. If indomethacin gave less than 30% inhibition at 4 h then the test was considered invalid.

[1] = Table 2, 2 μmol/kg s.c. in cyclodextrin
[2] = Table 2, 20 μmol/kg p.o. in water
[3] = Table 3, 2 μmol/kg s.c. in saline
[4] = Table 4, 0.7 μmol/kg s.c. in saline
[5] = Table 4, 1.4 μmol/kg s.c. in saline
[6] = Table 4, 2.0 μmol/kg s.c. in saline

C[C@@H]1C[C@H]2[C@@H]3CCC4=CC(=O)C=C[C@]4(C)[C@@]3(F)[C@@H](O)C[C@]2(C)[C@@]1(O)C(=O)CO [Dexamethasone, reference compound]
% Inhibition after sub-plantar injection, 2 hours after (0.03 mg/kg p.o.): 47% | % Inhibition after sub-plantar injection, 4 hours after (0.03 mg/kg p.o.): 74% | % Inhibition after sub-plantar injection, 2 hours after (0.3 mg/kg p.o.): 51% | % Inhibition after sub-plantar injection, 4 hours after (0.3 mg/kg p.o.): 96%

CC(C)Cc1ccc(C(C)C(=O)O)cc1 (stereo not shown) [Ibuprofen, reference compound]
% Inhibition after sub-plantar injection, 2 hours after (10 mg/kg p.o.): 22% | % Inhibition after sub-plantar injection, 4 hours after (10 mg/kg p.o.): 26%

COc1ccc2c(c1)c(CC(=O)O)c(C)n2C(=O)c1ccc(Cl)cc1 [Indomethacin, reference compound]
% Inhibition after sub-plantar injection, 2 hours after (10 mg/kg p.o.): 43% | % Inhibition after sub-plantar injection, 4 hours after (10 mg/kg p.o.): 50% | % Inhibition after 1 hour (Table 2, 10 mg/kg p.o.): −5% | % Inhibition after 2 hours (Table 2, 10 mg/kg p.o.): 50% | % Inhibition after 3 hours (Table 2, 10 mg/kg p.o.): 39% | % Inhibition after 4 hours (Table 2, 10 mg/kg p.o.): 12% | % Inhibition after 1 hour (Table 3, 10 mg/kg p.o.): 15% | % Inhibition after 2 hours (Table 3, 10 mg/kg p.o.): 2% | % Inhibition after 3 hours (Table 3, 10 mg/kg p.o.): 29% | % Inhibition after 4 hours (Table 3, 10 mg/kg p.o.): 18%

N=C(N)c1ccc(CNC(=O)[C@@H]2CCN2C(=O)[C@H](NCC(=O)O)C2CCCCC2)cc1 [Melagatran, HOOC—CH2—(R)Cgl-Aze-Pab-H]
% Inhibition after 1 hour [1]: 29% | % Inhibition after 2 hours [1]: 13% | % Inhibition after 3 hours [1]: 3% | % Inhibition after 4 hours [1]: 13% | % Inhibition after 1 hour [2]: 14% | % Inhibition after 2 hours [2]: 17% | % Inhibition after 3 hours [2]: −14% | % Inhibition after 4 hours [2]: −2% | % Inhibition after 1 hour [3]: 39% | % Inhibition after 2 hours [3]: 8% | % Inhibition after 3 hours [3]: 2% | % Inhibition after 4 hours [3]: −8% | % Inhibition after 1 hour [4]: 39% | % Inhibition after 1.5 hours [4]: −1% | % Inhibition after 2 hours [4]: 9% | % Inhibition after 3 hours [4]: 16% | % Inhibition after 1 hour [5]: 65% | % Inhibition after 1.5 hours [5]: 40% | % Inhibition after 2 hours [5]: 5% | % Inhibition after 3 hours [5]: 7% | % Inhibition after 1 hour [6]: 76% | % Inhibition after 1.5 hours [6]: 41% | % Inhibition after 2 hours [6]: 17% | % Inhibition after 3 hours [6]: 19% | inhibition of the oedema (in saline, 2 μmol/kg s.c., after 1 h): 39% | inhibition of paw oedema, dose and time dependence (in words) (in saline, 0.7, 1.4 and 2 μmol/kg s.c., 1 to 3 hours): inhibited paw oedema in both a dose dependent, and time dependent, manner | inhibiting paw oedema (in words) (orally 20 μmol/kg in water, 30 minutes prior to carrageenan, up to 6 h post dosing): ineffective
